According to the supplement of paper PMC10307832:

Key:
Experiment in all cases: relative viability (nuclei count vs DMSO), 5 days (fraction); higher = more cells survive
ABC-1 = tested on: ABC-1
In short: (§1)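 Lung cancer cell lines were pin-tool dosed in 1536-well plates on the day after seeding, with either a lone drug or a fixed anchor-drug dose plus five library-drug doses (not always all listed) in √10 steps. Nuclei were counted on 4× images after 5 days. Relative viability is the ratio of treated-well to vehicle-well nuclei counts, with each value a median of duplicate plates.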

ChaGo-K-1 = tested on: ChaGo-K-1
In short: as §1

EMC-BAC-2 = tested on: EMC-BAC-2
In short: as §1

HARA = tested on: HARA
In short: as §1

HCC-15 = tested on: HCC-15
In short: as §1

HCC-366 = tested on: HCC-366
In short: as §1

HCC-78 = tested on: HCC-78
In short: as §1

HOP-62 = tested on: HOP-62
In short: as §1

LC-2-ad = tested on: LC-2-ad
In short: as §1

NCI-H1395 = tested on: NCI-H1395
In short: as §1

NCI-H1793 = tested on: NCI-H1793
In short: as §1

NCI-H1944 = tested on: NCI-H1944
In short: as §1

NCI-H1993 = tested on: NCI-H1993
In short: as §1

NCI-H2126 = tested on: NCI-H2126
In short: as §1

NCI-H23 = tested on: NCI-H23
In short: as §1

NCI-H2405 = tested on: NCI-H2405
In short: as §1

NCI-H358 = tested on: NCI-H358
In short: as §1

NCI-H838 = tested on: NCI-H838
In short: as §1

## CC(=O)O[C@@]12CO[C@@H]1C[C@H](O)[C@@]1(C)C(=O)[C@H](O)C3=C(C)[C@@H](OC(=O)[C@H](O)[C@@H](NC(=O)OC(C)(C)C)c4ccccc4)C[C@@](O)([C@@H](OC(=O)c4ccccc4)[C@H]21)C3(C)C [Docetaxel] + NC(=O)Nc1cc(-c2cccc(F)c2)sc1C(=O)N[C@H]1CCCNC1 [AZD7762] (partner 0.2 µM)
ABC-1; first compound 0.0002 µM
  relative viability: 0.826
ABC-1; first compound 0.000632 µM
  relative viability: 0.795
ABC-1; first compound 0.002 µM
  relative viability: 0.619
ABC-1; first compound 0.006325 µM
  relative viability: 0.297
ABC-1; first compound 0.02 µM
  relative viability: 0.222
ChaGo-K-1; first compound 0.0002 µM
  relative viability: 0.817
ChaGo-K-1; first compound 0.000632 µM
  relative viability: 0.792
ChaGo-K-1; first compound 0.002 µM
  relative viability: 0.578
ChaGo-K-1; first compound 0.006325 µM
  relative viability: 0.27
ChaGo-K-1; first compound 0.02 µM
  relative viability: 0.161
EMC-BAC-2; first compound 0.0002 µM
  relative viability: 1.03
EMC-BAC-2; first compound 0.000632 µM
  relative viability: 0.885
EMC-BAC-2; first compound 0.002 µM
  relative viability: 0.467
EMC-BAC-2; first compound 0.006325 µM
  relative viability: 0.334
EMC-BAC-2; first compound 0.02 µM
  relative viability: 0.369
HARA; first compound 0.0002 µM
  relative viability: 0.273
HARA; first compound 0.000632 µM
  relative viability: 0.201
HARA; first compound 0.002 µM
  relative viability: 0.105
HARA; first compound 0.006325 µM
  relative viability: 0.193
HARA; first compound 0.02 µM
  relative viability: 0.076
HCC-15; first compound 0.0002 µM
  relative viability: 1.18
HCC-15; first compound 0.000632 µM
  relative viability: 1.02
HCC-15; first compound 0.002 µM
  relative viability: 0.433
HCC-15; first compound 0.006325 µM
  relative viability: 0.289
HCC-15; first compound 0.02 µM
  relative viability: 0.256
HCC-366; first compound 0.0002 µM
  relative viability: 0.206
HCC-366; first compound 0.000632 µM
  relative viability: 0.0949
HCC-366; first compound 0.002 µM
  relative viability: 0.145
HCC-366; first compound 0.006325 µM
  relative viability: 0.0384
HCC-366; first compound 0.02 µM
  relative viability: 0.0132
HCC-78; first compound 0.0002 µM
  relative viability: 0.479
HCC-78; first compound 0.000632 µM
  relative viability: 0.545
HCC-78; first compound 0.002 µM
  relative viability: 0.318
HCC-78; first compound 0.006325 µM
  relative viability: 0.394
HCC-78; first compound 0.02 µM
  relative viability: 0.364
HOP-62; first compound 0.0002 µM
  relative viability: 0.6
HOP-62; first compound 0.000632 µM
  relative viability: 0.395
HOP-62; first compound 0.02 µM
  relative viability: 0.0943
LC-2-ad; first compound 0.0002 µM
  relative viability: 0.8
LC-2-ad; first compound 0.000632 µM
  relative viability: 0.353
LC-2-ad; first compound 0.002 µM
  relative viability: 0.224
LC-2-ad; first compound 0.006325 µM
  relative viability: 0.274
LC-2-ad; first compound 0.02 µM
  relative viability: 0.178
NCI-H1395; first compound 0.0002 µM
  relative viability: 0.421
NCI-H1395; first compound 0.000632 µM
  relative viability: 0.38
NCI-H1395; first compound 0.002 µM
  relative viability: 0.379
NCI-H1395; first compound 0.006325 µM
  relative viability: 0.343
NCI-H1395; first compound 0.02 µM
  relative viability: 0.32
NCI-H1793; first compound 0.0002 µM
  relative viability: 0.369
NCI-H1793; first compound 0.000632 µM
  relative viability: 0.381
NCI-H1793; first compound 0.002 µM
  relative viability: 0.299
NCI-H1793; first compound 0.006325 µM
  relative viability: 0.204
NCI-H1793; first compound 0.02 µM
  relative viability: 0.144
NCI-H1944; first compound 0.0002 µM
  relative viability: 0.667
NCI-H1944; first compound 0.000632 µM
  relative viability: 0.476
NCI-H1944; first compound 0.002 µM
  relative viability: 0.339
NCI-H1944; first compound 0.006325 µM
  relative viability: 0.25
NCI-H1944; first compound 0.02 µM
  relative viability: 0.102
NCI-H1993; first compound 0.0002 µM
  relative viability: 0.873
NCI-H1993; first compound 0.000632 µM
  relative viability: 0.739
NCI-H1993; first compound 0.002 µM
  relative viability: 0.603
NCI-H1993; first compound 0.006325 µM
  relative viability: 0.477
NCI-H1993; first compound 0.02 µM
  relative viability: 0.303
NCI-H2126; first compound 0.0002 µM
  relative viability: 1.07
NCI-H2126; first compound 0.000632 µM
  relative viability: 1
NCI-H2126; first compound 0.002 µM
  relative viability: 0.571
NCI-H2126; first compound 0.006325 µM
  relative viability: 0.395
NCI-H23; first compound 0.0002 µM
  relative viability: 0.241
NCI-H23; first compound 0.000632 µM
  relative viability: 0.246
NCI-H23; first compound 0.002 µM
  relative viability: 0.136
NCI-H23; first compound 0.006325 µM
  relative viability: 0.148
NCI-H23; first compound 0.02 µM
  relative viability: 0.103
NCI-H2405; first compound 0.0002 µM
  relative viability: 0.742
NCI-H2405; first compound 0.000632 µM
  relative viability: 0.582
NCI-H2405; first compound 0.002 µM
  relative viability: 0.46
NCI-H2405; first compound 0.006325 µM
  relative viability: 0.349
NCI-H2405; first compound 0.02 µM
  relative viability: 0.248
NCI-H358; first compound 0.0002 µM
  relative viability: 0.429
NCI-H358; first compound 0.000632 µM
  relative viability: 0.328
NCI-H358; first compound 0.006325 µM
  relative viability: 0.24
NCI-H358; first compound 0.02 µM
  relative viability: 0.159
NCI-H838; first compound 0.0002 µM
  relative viability: 0.955
NCI-H838; first compound 0.000632 µM
  relative viability: 0.915
NCI-H838; first compound 0.002 µM
  relative viability: 0.639
NCI-H838; first compound 0.006325 µM
  relative viability: 0.606
NCI-H838; first compound 0.02 µM
  relative viability: 0.574
